Reference: patent US7368255B2, “RUNX3 gene showing anti-tumor activity and use thereof” (priority 2001, dated 2008)
Entries after “also recorded” stand apart in the source; their conditions may differ.

Tests used:
RUNX3 gene expression = test: Reactivation of RUNX3 gene expression, RT-PCR; assay type: cell-based, human; conditions: AZA 300 nM, TSA 1 mM, alone or in combination, 3 days, NUGC3, MKN28, MKN74 cell lines
Protocol: To determine whether the DNA methylation observed in Example 5-1 is the direct cause of the inactivation of the RUNX3 gene, the influence of a DNA methyltransferase inhibitor and a histone deacetylase inhibitor on the reactivation of the RUNX3 gene expression was analyzed.
The NUGC3, MKN28, and MKN74 cell lines (selected randomly from the cell lines showing no RUNX3 gene expression by RT-PCR analysis) were treated with […] (AZA, 300 nM), which inhibits DNA methyltransferase, and trichostatin A (TSA, […]), which inhibits histone deacetylase, alone or in combination. After 3 days of the treatment, total RNA was isolated from each cell line in accordance with the same standardized single-step guanidium method used in Example 4-1, and then analyzed for the expression of the RUNX3 gene by RT-PCR using the PS-N primer pair of SEQ. ID. NOS: 4 and 5.

SNU16-Rx3-AS-c12 cells [1] = test: Apoptotic DNA bands by genomic DNA electrophoresis after TGF-β1; assay type: cell-based; conditions: TGF-β1 1 ng/ml, 6 hours
Protocol: (§1) Cells dying through the programmed cell death pathway reveal a distinct pattern of DNA bands when electrophoresed in an agarose gel. After being treated with 1 ng/ml TGF-β1 for 6 hours, the control-SNU16, SNU16-Rx3-AS-c11, and SNU16-Rx3-AS-c12 strains were lysed to isolate genomic DNAs according to a standard method (Sambrook et al., 1988, Molecular Cloning: a laboratory manual, 2nd Ed. Cold Spring Harbor Laboratory, Cold Spring Harbor, N.Y., USA). 0.2 μg of each of the genomic DNA preparations was electrophoresed on a 1.5% agarose gel and visualized with ethidium bromide under UV light.

SNU16 cells [2] = test: as above; assay type: cell-based; conditions: TGF-β1 1 ng/ml, 6 hours
Protocol: as §1

SNU16-Rx3-AS-c11 cells [3] = test: as above; assay type: cell-based; conditions: TGF-β1 1 ng/ml, 6 hours
Protocol: as §1

SNU16 cells [4] = test: TGF-β1-induced cell death, viable cell counts; assay type: cell-based; conditions: TGF-β1 1 ng/ml
SNU16-Rx3-AS-c11 cells [5] = test: TGF-β1-induced cell death, viable cell counts; assay type: cell-based; conditions: TGF-β1 1 ng/ml; SNU16-Rx3-AS-c11 cells (antisense RUNX3)
SNU16-Rx3-AS-c12 cells [6] = test: TGF-β1-induced cell death, viable cell counts; assay type: cell-based; conditions: TGF-β1 1 ng/ml; SNU16-Rx3-AS-c12 cells (antisense RUNX3)

Molecule | expression of the RUNX3 gene (RT-PCR) (RUNX3 gene expression) | expression of the RUNX3 gene (RT-PCR) (RUNX3 gene expression; listed as 5-aza-2-deoxycytidine) | apoptotic DNA bands (SNU16-Rx3-AS-c12 cells [1]) | apoptotic DNA bands (SNU16 cells [2]) | apoptotic DNA bands (SNU16-Rx3-AS-c11 cells [3]) | time within which SNU16 cells were killed (SNU16 cells [4]) [days] | cell death after TGF-β1 treatment (SNU16-Rx3-AS-c11 cells [5]) | cell death after TGF-β1 treatment (SNU16-Rx3-AS-c12 cells [6])
Nc1ncn([C@H]2C[C@H](O)[C@@H](CO)O2)c(=O)n1 | the expression of the RUNX3 gene was induced | allows the RUNX3 gene to be expressed |  |  |  |  |  | 
CC(/C=C/C(=O)NO)=C\[C@@H](C)C(=O)c1ccc(N(C)C)cc1 [trichostatin A] | allows the RUNX3 gene to be expressed; also recorded: the expression of the RUNX3 gene was induced |  |  |  |  |  |  | 
TGF-β1: TGF-β1 cytokine used at 1 ng/ml to induce cell death in SNU16 cells |  |  | no apoptotic bands were observed | apoptotic DNA bands were formed; also recorded: These bands are apparent | no apoptotic bands were observed | ≤ 2 | did not kill | did not kill
